Source: PMC7098856 (British Journal of Clinical Pharmacology, 2020)
“And” between values parts separate entries of the source, which are not always exact repeats. Identical values can stand only once. Like-named read-outs stand apart in the source and are kept apart here.

Legend:
enzymes or transporters = conditions: at therapeutic exposures; cited from earlier work
[1] = Phase 1 dose escalation study; cited from earlier work
[2] = format: in vivo, patients with advanced solid tumours; conditions: for CL/F / variability of talazoparib Cmax: Arm B; for CL/F: geometric mean (CV%)
[3] = test system: breast cancer resistance protein; conditions: in vitro; cited from earlier work
[4] = cited from earlier work
[5] = population PK, cited from earlier work
[6] = cited from earlier work; remark: listed apart in the source
[7] = cited from earlier work; remark: listed apart in the source
P‐glycoprotein (P‐gp) = conditions: in vitro; cited from earlier work
[8] = format: in vivo, patients with advanced solid tumours; conditions: for CL/F: geometric mean (CV%)
Safety and tolerability [9] = format: in vivo, patients with advanced solid tumours; conditions: both arms; talazoparib alone or together with itraconazole or rifampicin
Safety and tolerability [10] = format: in vivo, patients with advanced solid tumours; conditions: whole Arm B
[11] = talazoparib + rifampicin vs talazoparib alone
[12] = talazoparib + rifampicin vs talazoparib alone, listed as talazoparib
[13] = based on urinary excretion data, single 1 mg oral dose
[14] = coadministration of itraconazole
[15] = talazoparib + itraconazole vs talazoparib alone

Cn1ncnc1[C@H]1c2n[nH]c(=O)c3cc(F)cc(c23)N[C@@H]1c1ccc(F)cc1 [Talazoparib, talazoparib]
induction or inhibition of enzymes or transporters (enzymes or transporters): does not markedly induce or inhibit
maximum tolerated dose (MTD) [1]: 1 mg once daily (QD)
CL/F ([2]; single oral 1.0 mg talazoparib + rifampicin): 12 5.2 (36.0) L/h
CL/F ([2]; single oral 1.0 mg talazoparib alone): 17 4.8 (34.0) L/h
variability of talazoparib Cmax ([2]; talazoparib alone): 53%
variability of talazoparib Cmax ([2]; with rifampicin administration): 71%
increase in talazoparib Cmax relative to talazoparib alone ([2]; coadministration of rifampicin): approximately 37%
Cmax ([2]; human, plasma, oral, 1 mg): 6.01 ng/mL
Cmax ([2]; human, plasma, po, 1 mg): 6.01 ng/mL
Tmax ([2]; human, plasma, po, 1 mg): 1 h
Vd/F ([2]; human, plasma, po, 1 mg): 624 L
half-life ([2]; human, plasma, po, 1 mg): 92.1 h
AUCinf geometric mean ratio (test/reference), % (90% CI) [2, 11]: 102.0 (94.0, 110.7) %
AUClast geometric mean ratio (test/reference), % (90% CI) [2, 11]: 105.4 (98.0, 113.2) %
Cmax geometric mean ratio (test/reference), % (90% CI) [2, 11]: 136.6 (103.2, 180.9) %
AUCinf geometric mean ratio (test/reference), % (90% CI) [2, 12]: 102.0%
Cmax geometric mean ratio (test/reference), % (90% CI) [2, 12]: 136.6%
substrate for breast cancer resistance protein [3]: substrate
patients who permanently discontinued treatment due to a haematological AE [4]: 1.4%
progression-free survival vs physician's choice of chemotherapy [4]: statistically significant and clinically meaningful improvement
patients with Grade 3–4 AEs (primarily haematological) ([4]; patients on talazoparib): 55%
increase in relative bioavailability of talazoparib by potent P-gp inhibitors ([5]; data pooled from multiple clinical trials): 45%
increase in relative bioavailability of talazoparib by potent P-gp inhibitors ([5]; first-in-human, Phase 2 and 3 studies): 44.7%
effect of food on talazoparib AUCinf [6]: no effect
effect of food on talazoparib Cmax [6]: reduced
absolute bioavailability [7, 13]: at least 54.6%
fraction absorbed [7, 13]: at least 68.7%
hepatic metabolism [7]: minimal
major elimination pathway [7]: renal excretion of unchanged talazoparib
substrate for P-gp (P‐glycoprotein (P‐gp)): substrate
AUClast, adjusted geometric mean ([8]; Arm A talazoparib alone (reference), mixed effects model): 98,532.3 h pg/mL
CL/F ([8]; Arm A, single oral 0.5 mg talazoparib + itraconazole): 12 3.3 (36.0) L/h
Tmax ([8]; Arm A, single oral 0.5 mg talazoparib + itraconazole, median (range)): 15 1.0 (0.5–4.0) h
CL/F ([8]; Arm A, single oral 0.5 mg talazoparib alone): 18 4.6 (42.0) L/h
increase in talazoparib AUCinf relative to talazoparib alone [8, 14]: ~ 56% and 56%
increase in talazoparib Cmax relative to talazoparib alone [8, 14]: ~ 40% and 40%
AUC(0-inf) ([8]; human, plasma, oral, 0.5 mg): 110 ng·h/mL
Cmax ([8]; human, plasma, oral, 0.5 mg): 2.09 ng/mL
Cmax ([8]; human, plasma, po, 0.5 mg): 2.09 ng/mL
Vd/F ([8]; human, plasma, po, 0.5 mg): 645 L
half-life ([8]; human, plasma, po, 0.5 mg): 101 h
AUCinf geometric mean ratio (test/reference), % (90% CI) [8, 15]: 156.2 (137.6, 177.4) %
AUClast geometric mean ratio (test/reference), % (90% CI) [8, 15]: 150.7 (136.5, 166.4) %
Cmax geometric mean ratio (test/reference), % (90% CI) [8, 15]: 139.9 (113.3, 172.9) %
overall tolerability (Safety and tolerability [9]): generally well tolerated
patients who discontinued treatment due to AEs (Safety and tolerability [10]): 11.8%
patients who discontinued treatment due to study-drug related AE (Safety and tolerability [10]): 5.9%
